Read-outs that look alike come from different tables or passages of the source.
Legend:
[1] = Chemical hydrolysis in phosphate buffer saline (PBS, pH 7.3); format: physicochemical; settings: PBS pH 7.3, 37 °C, read-out: PBS pH 7.3 t 1/2 (converted)
Procedure: (§1) Part 4. Chemical Hydrolysis of TriPPPro-compounds 10 and 20.
Second prepare 1.9 mM hydrolysis […]
(§2) Then, aliquots of 50 µL human

in vitro [2] = settings: human
Procedure: The hydrolysis properties of TriPPPro‐compounds 10 and 20 were evaluated in phosphate buffer saline (PBS, pH 7.3), pig liver esterase (PLE) or CEM/0 cell extracts. In both cases, hydrolysis products were analyzed by means of analytical RP18‐HPLC and the hydrolysis half‐lives (Table 1 , t1/2 ) of TriPPPro‐compounds 10 and 20 were calculated after complete consumption of the starting materials.
The hydrolysis of TriPPPro‐compounds 10 and 20 was carried out with CEM/0 cell extracts as well. […]
Part 6. Enzyme-Catalyzed Hydrolysis of TriPPPro-compounds 10 and 20 in CEM Cell […]
First prepare 3.0 mM hydrolysis solutions of Tri PPPro-compounds 10 and 20 in DMSO and H2O: 21 µL stock solution (50 mM in DMSO) and 154 µL DMSO, and 175 µL Milli-Q water. Three-twelve different samples (20 µL 3.0 mM hydrolysis solutions) were prepared in 2 mL Eppendorf® vials. Then, aliquots of 50 µL human CEM cell extracts were added to these samples and the reaction was started. The samples were incubated at 37 °C in a thermomixer for different time periods. The reaction was stopped by addition of 150 µL MeOH and kept on ice for 5 min. After centrifugation at 14,000 rpm for 12 min, the supernatants were filtered (Chromafil RC-20/15 MS, 0.2 μm) and stored in liquid nitrogen. When testing, aliquots of 60 µL (injection volume) were analyzed by analytical HPLC (HPLC Method). The calculation of t1/2 was obtained using Origin again.
(§3) Part 7. Hydrolysis of TriPPPro-compounds 10 and 20 in human plasma.
µL 3.0 mM hydrolysis solutions) were prepared in 2 mL Eppendorf® vials.

pig liver esterase (PLE) = test: Hydrolysis with pig liver esterase (PLE); format: in vitro ADME; settings: pig liver esterase (PLE) in PBS, PLE in PBS pH 7.3, 37 °C, read-out: PLE t 1/2 (converted)
From the text: Next, TriPPPro‐compounds 10 and 20 were exposed to PLE in PBS (pH 7.3) and the half‐lives of TriPPPro‐compounds 10 and 20 are listed in Table 1. […] In contrast, the cleavage of the AB (C4) masking group in TriPPPro‐compounds 10by–hy and 10bz–hz was triggered by ester hydrolysis and yielded the corresponding γ‐alkylated nucleoside triphosphate derivatives 20 (Figure 3B,D) and 21 (Figures S17 and S18, Supporting Information), respectively. […] Moreover, a very small amount of NDPs was observed, probably due to a reaction involving a nucleophilic reaction at the γ‐phosphate or γ‐phosphonate moiety (pathways d and f, Scheme 5). […]
as §1
Second prepare 1.9 mM hydrolysis
Part 5. Hydrolysis of TriPPPro-compounds 10 and 20 with PLE .
Second, 125 µL DMSO and 833 µL
62.5 µL of PLE solution in PBS (100
mixture was stored in the freezer (- 30 °C).
by analytical HPLC (HPLC Method).
similar to that for the chemical hydrolysis studies. […]
as §2

HIV‐1 [HE] = test: Anti-HIV activity, HIV-1 in wild-type CEM/0 cells; format: cell-based; settings: Human immunodeficiency virus 1, CCRF-CEM, read-out: Antiviral activity CEM/0 HIV‐1 [HE] EC50
HIV‐2 [ROD] = test: Anti-HIV activity, HIV-2 in wild-type CEM/0 cells; format: cell-based; settings: Human immunodeficiency virus 2, CCRF-CEM, read-out: Antiviral activity CEM/0 HIV‐2 [ROD] EC50
Procedure: (§4) Part 9. Anti-HIV activity assay.
(§5) The produce was used as previously reported. 5 Inhibition of HIV-1(IIIB)- and HIV-2(ROD)-induced cytopathogenicity in wild-type CEM/0 and thymidine kinase-deficient CEM/TK– cell cultures was measured in […]
(§6) containing appropriate dilutions of the test compounds. After 4−5 days of incubation at 37 °C in a CO2-controlled humidified atmosphere, CEM giant (syncytium) cell formation was examined microscopically. The […]
(§7) giant cell formation by 50%.
(§8) Part 10. Primer-extension assays. […]

HIV‐2 [ROD)] = test: Anti-HIV activity, HIV-2 in thymidine kinase-deficient CEM/TK^− cells; format: cell-based
Procedure: as §4, §5, §6, §7, §8

in vitro [3] = settings: human, CEM/0 cells (wild-type CD4+ T-cells)
Procedure: All TriPPPro‐compounds 10 and 20, as well as their parent nucleosides and the corresponding NTPs, were evaluated for their antiviral activity (expressed as EC50 values) against HIV‐1 (wild‐type CEM/0 cells) and HIV‐2 (wild‐type CEM/0 cells and thymidine kinase‐deficient (CEM/TK^−) cells) with concomitant determination of cytotoxicity in the same cell line (Table 3 ).

in vitro [4] = settings: human, plasma
Procedure: First prepare 50 mM solutions of TriPPPro-compounds 10 and 20 in DMSO. […]
First prepare 3.0 mM hydrolysis solutions of Tri PPPro-compounds 10 and 20 in DMSO and H2O: 21 µL stock solution (50 mM in DMSO) and 154 µL DMSO, and 175 µL Milli-Q water. Three-twelve different samples (20 […]
The calculation of t1/2 was obtained using Origin again.
as §3
µL 3.0 mM hydrolysis solutions) were prepared in 2 mL Eppendorf® vials. Then, aliquots of 50 µL human Plasma (Heparin or Citrate) were added to these samples and the reaction was started. The samples were […]
incubated at 37 °C in a thermomixer for different time periods. The reaction was stopped by addition of 150 µL MeOH and kept on ice for 5 min. After centrifugation at 14,000 rpm for 22 min, the supernatants were filtered (Chromafil RC-20/15 MS, 0.2 μm) and stored in liquid nitrogen. When testing, aliquots of 25 0r 30 µL (injection volume) were analyzed by analytical HPLC (HPLC Method). The calculation of t1/2 was obtained using Origin […]
Part 8. Preparation of cell extracts and human plasma. […]

[5] = wild-type CEM/0 cells, mean ±SD n = 2–3
[6] = Human immunodeficiency virus 2, CEM-TK(-), thymidine kinase-deficient CEM/TK^− cells, mean ±SD n = 2–3; read-out: Antiviral activity CEM/TK^− HIV‐2 [ROD)] EC50

| SMILES | half-life at 1.9 mM [1] | half-life at 0.86 mM (in vitro [2]) | half-life at 0.45 mM (pig liver esterase (PLE)) | EC50 (HIV‐1 [HE]; [5]) | EC50 (HIV‐2 [ROD]; [5]) | EC50 (HIV‐2 [ROD)]; [6]) | CC50 (in vitro [3]) | half-life at 0.86 mM (in vitro [4]; Plasma (Citrate) t 1/2) | half-life at 0.86 mM (in vitro [4]; Plasma (Heparin) t 1/2) | half-life at 0.86 mM (in vitro [4]; t 1/2 in human plasma (over heparin and citrate plasma)) | EC50 (HIV‐1 [HE]) | EC50 (HIV‐2 [ROD]) | EC50 (HIV‐2 [ROD)]; Human immunodeficiency virus 2, CEM-TK(-), read-out: Antiviral activity CEM/TK^− HIV‐2 [ROD)] EC50) |
| --- | --- | --- | --- | --- | --- | --- | --- | --- | --- | --- | --- | --- | --- |
| CCCCCCCCCCCCCCCCCCOP(=O)(OCc1ccc(OC(=O)CCCC)cc1)OP(=O)(O)OP(=O)(O)OC[C@@H]1C=C[C@H](n2cnc3c(NC4CC4)nc(N)nc32)C1 (stereo partly shown) [10hy] | 1.92 days | 1.3 h | 0.97 h | 960 ± 490 nM | 290 ± 160 nM | 210 ± 110 nM | > 100000 nM |  |  |  |  |  |  |
| CCCCCCCCCCCCCCCCCCOP(=O)(OCCCC)OP(=O)(O)OP(=O)(O)OC[C@H]1O[C@@H](n2cc(/C=C/Br)c(=O)[nH]c2=O)C[C@@H]1O (stereo partly shown) [10gv] | > 83.3 days | > 10 h | > 150 h | > 10000 nM | 5370 ± 690 nM | 36400 ± 34700 nM | 48000 ± 4200 nM |  |  |  |  |  |  |
| CCCCCCCCCCCCCCCCCCOP(=O)(O)OP(=O)(O)OP(=O)(O)OC[C@H]1O[C@@H](n2cc(Cl)c(=O)[nH]c2=O)C[C@@H]1F [20d] | > 83.3 days | > 20 h | > 150 h | 3140 ± 2930 nM | 2240 ± 650 nM | 62100 nM | > 100000 nM |  |  |  |  |  |  |
| Cc1cn([C@H]2C[C@H](N=[N+]=[N-])[C@@H](COP(=O)(O)OP(=O)(O)O)O2)c(=O)[nH]c1=O [AZTDP, reference compound] |  |  |  |  |  |  |  | 6.4 h | 2.8 h | 2.8 to 6.4 h |  |  |  |
| CCCCCCCCCCCCCCCCCCOP(=O)(OCc1ccc(OC(=O)CCCC)cc1)OP(=O)(O)OP(=O)(O)OC[C@H]1O[C@@H](n2cc(/C=C/Br)c(=O)[nH]c2=O)C[C@@H]1O (stereo partly shown) [10gy] | 25 days |  | 0.3 h | 8570 ± 5020 nM | 2870 ± 1720 nM | 11100 ± 1340 nM | 52100 nM |  |  |  |  |  |  |
| CCCCCCCCCCCCCCCCCCOP(=O)(OCc1ccc(OC(=O)CCCC)cc1)OP(=O)(O)OP(=O)(O)OC[C@H]1O[C@@H](n2cc(Cl)c(=O)[nH]c2=O)C[C@@H]1F (stereo partly shown) [10dy] | 18.5 days | 2.9 h | 0.19 h | 7320 ± 2280 nM | 1950 ± 860 nM | 2530 ± 1380 nM | 52100 nM |  |  |  |  |  |  |
| CCCCCCCCCCCCCCCCCCOP(=O)(O)OP(=O)(O)OP(=O)(O)OC[C@@H]1O[C@H](n2cc(F)c(N)nc2=O)CS1 [20c, γ‐C18‐FTCTP] | > 83.3 days | > 30 h | > 150 h | 350 ± 250 nM | 220 ± 20 nM | 51 ± 69 nM | 63400 ± 13700 nM |  |  |  |  |  |  |
| CCCCCCCCCCCCCCCCCCOP(=O)(OCCCC)OP(=O)(O)OP(=O)(O)OC[C@H]1O[C@@H](n2cc(Cl)c(=O)[nH]c2=O)C[C@@H]1F (stereo partly shown) [10dv] | > 83.3 days | > 20 h | > 150 h | 2280 ± 680 nM | 4810 ± 4610 nM | > 20000 nM | 50100 ± 10200 nM |  |  |  |  |  |  |
| CCCCCCCCCCCCCCCCCCOP(=O)(O)OP(=O)(O)OP(=O)(O)OC[C@H]1O[C@@H](n2cc(/C=C/Br)c(=O)[nH]c2=O)C[C@@H]1O [20g] | > 83.3 days | > 20 h | > 150 h | > 10000 nM | > 10000 nM | 15700 ± 980 nM | > 100000 nM |  |  |  |  |  |  |
| CCCCCCCCCCCCCCCCCCOP(=O)(O)OP(=O)(O)OP(=O)(O)OC[C@H]1O[C@@H](n2cc(C)c(=O)[nH]c2=O)C[C@@H]1F [20f, γ‐C18‐FLTTP] | > 83.3 days | > 20 h | > 150 h | 19 ± 19 nM | 10 ± 1 nM | 1270 ± 540 nM | > 100000 nM |  |  |  |  |  |  |
| CCCCCCCCCCCCCCCCCCP(=O)(OCCCC)OP(=O)(O)OP(=O)(O)OC[C@H]1O[C@@H](n2cc(C)c(=O)[nH]c2=O)C[C@@H]1N=[N+]=[N-] (stereo partly shown) [10bx] | > 62.5 days | > 20 h | > 150 h |  |  |  | > 100000 nM |  |  |  | 120 ± 88 nM | 31 ± 5 nM | 1190 ± 790 nM |
| CCCCCCCCCCCCCCCCCCOP(=O)(OCc1ccc(OC(=O)CCCC)cc1)OP(=O)(O)OP(=O)(O)OC[C@@H]1O[C@H](n2cc(F)c(N)nc2=O)CS1 (stereo partly shown) [10cy, γ‐(AB‐C4;alkyl‐C18)‐FTCTP] | 10.5 days | 3.4 h | 0.24 h | 140 ± 65 nM | 180 ± 150 nM | 62 ± 59 nM | 51900 nM |  |  |  |  |  |  |
| CCCCCCCCCCCCCCCCCCP(=O)(OCc1ccc(OC(=O)CCCC)cc1)OP(=O)(O)OP(=O)(O)OC[C@H]1O[C@@H](n2cc(Cl)c(=O)[nH]c2=O)C[C@@H]1F (stereo partly shown) [10dz] | 27.9 days | > 10 h | 1.3 h | 2020 ± 800 nM | 510 ± 140 nM | 4660 ± 3420 nM | 54900 nM |  |  |  |  |  |  |
| CCCCCCCCCCCCCCCCCCOP(=O)(OCCCC)OP(=O)(O)OP(=O)(O)OC[C@@H]1O[C@H](n2cc(F)c(N)nc2=O)CS1 (stereo partly shown) [10cv, γ‐(C4;C18)‐FTCTP] | > 83.3 days | > 10 h | > 150 h | 39 ± 35 nM | 74 ± 27 nM | 3.2 nM | 51200 ± 7700 nM |  |  |  |  |  |  |
| CCCCCCCCCCCCCCCCCCOP(=O)(O)OP(=O)(O)OP(=O)(O)OC[C@H]1O[C@@H](n2ccc(=O)[nH]c2=O)C[C@@H]1F [20e, γ‐C18‐FddUTP] | > 83.3 days | > 20 h | > 150 h | 92 ± 82 nM | 390 ± 300 nM | 3560 ± 1880 nM | 63700 ± 13600 nM |  |  |  |  |  |  |
